This is an account of results in patent US6451735B1, “Glyphosate formulation” (priority 1998, dated 2002).

The series in a line: solubility in water and solution density of glyphosate salt. The format is physicochemical.

Structures can show the parent of a compound that is named as a salt.

`O=C(O)CNCP(=O)(O)O` [potassium salt of glyphosate, N-phosphonomethylglycine]: the density of solutions entry (aqueous solution) is given as “about 1.45 g/cc”. Further, the solubility in water entry (water) is “readily soluble”.
